Assay results published in patent US20130210846A1, “USE OF NOVEL PAN-CDK INHIBITORS FOR TREATING TUMORS” (BAYER INTELLECTUAL PROPERTY GMBH, priority 2010, published 2013).

Tests used:
[1] = biological target: T1, CDK2/CycE (Homo sapiens, UniProt P24941); assay: CDK2/CycE kinase assay (Assay 2); format: biochemical; settings: 0.5 μM ATP, histon IIIS, 10 min 22° C.; read-out: CDK2/CycE (Assay 2) Concentration for half-maximal inhibition of the enzyme activity, IC50
T1 construct: purchased ProQinase GmbH, Freiburg, Germany; host or cells: baculovirus-infected insect cells (Sf9)
Description: Recombinant CDK2 and CycE-GST fusion proteins, purified from baculovirus-infected insect cells (Sf9), were purchased from ProQinase GmbH, Freiburg, Germany. Histon HIS, used as kinase substrate, was purchased from Sigma.
The reaction was stopped by adding EDTA solution (250 mM, pH 8.0, 15 μl/measuring point).
From each reaction mixture, 15 μl was applied to P30 filter strips (from Wallac), and unincorporated ^33P-ATP was removed by washing the filter strips three times, for 10 min each time, in 0.5% phosphoric acid. After drying the filter strips for 1 hour at 70° C., the filter strips were covered with scintillator strips (MeltiLex™ A, from Wallac) and stoved for 1 hour at 90° C. The amount of incorporated ^33P (substrate phosphorylation) was determined by scintillation measurement in a gamma-radiation measuring instrument (Wallac). […] The IC50 values were determined by means of a 4-parameter fit using the company's own software.

[2] = biological target: T2, VEGF receptor tyrosine kinase-2 (VEGF-R2) (Homo sapiens, UniProt P35968); assay: VEGF receptor-2 kinase assay (Assay 3); format: biochemical; settings: 8 μM ATP, poly-(Glu4Tyr), 10 min 22° C.; read-out: VEGF-R2 (Assay 3) Concentration for half-maximal inhibition of the enzyme activity, IC50
T2 construct: GST; made in house; host or cells: baculovirus-infected insect cells (Sf9)
T2 sequence (P35968 20-1356, species assumed): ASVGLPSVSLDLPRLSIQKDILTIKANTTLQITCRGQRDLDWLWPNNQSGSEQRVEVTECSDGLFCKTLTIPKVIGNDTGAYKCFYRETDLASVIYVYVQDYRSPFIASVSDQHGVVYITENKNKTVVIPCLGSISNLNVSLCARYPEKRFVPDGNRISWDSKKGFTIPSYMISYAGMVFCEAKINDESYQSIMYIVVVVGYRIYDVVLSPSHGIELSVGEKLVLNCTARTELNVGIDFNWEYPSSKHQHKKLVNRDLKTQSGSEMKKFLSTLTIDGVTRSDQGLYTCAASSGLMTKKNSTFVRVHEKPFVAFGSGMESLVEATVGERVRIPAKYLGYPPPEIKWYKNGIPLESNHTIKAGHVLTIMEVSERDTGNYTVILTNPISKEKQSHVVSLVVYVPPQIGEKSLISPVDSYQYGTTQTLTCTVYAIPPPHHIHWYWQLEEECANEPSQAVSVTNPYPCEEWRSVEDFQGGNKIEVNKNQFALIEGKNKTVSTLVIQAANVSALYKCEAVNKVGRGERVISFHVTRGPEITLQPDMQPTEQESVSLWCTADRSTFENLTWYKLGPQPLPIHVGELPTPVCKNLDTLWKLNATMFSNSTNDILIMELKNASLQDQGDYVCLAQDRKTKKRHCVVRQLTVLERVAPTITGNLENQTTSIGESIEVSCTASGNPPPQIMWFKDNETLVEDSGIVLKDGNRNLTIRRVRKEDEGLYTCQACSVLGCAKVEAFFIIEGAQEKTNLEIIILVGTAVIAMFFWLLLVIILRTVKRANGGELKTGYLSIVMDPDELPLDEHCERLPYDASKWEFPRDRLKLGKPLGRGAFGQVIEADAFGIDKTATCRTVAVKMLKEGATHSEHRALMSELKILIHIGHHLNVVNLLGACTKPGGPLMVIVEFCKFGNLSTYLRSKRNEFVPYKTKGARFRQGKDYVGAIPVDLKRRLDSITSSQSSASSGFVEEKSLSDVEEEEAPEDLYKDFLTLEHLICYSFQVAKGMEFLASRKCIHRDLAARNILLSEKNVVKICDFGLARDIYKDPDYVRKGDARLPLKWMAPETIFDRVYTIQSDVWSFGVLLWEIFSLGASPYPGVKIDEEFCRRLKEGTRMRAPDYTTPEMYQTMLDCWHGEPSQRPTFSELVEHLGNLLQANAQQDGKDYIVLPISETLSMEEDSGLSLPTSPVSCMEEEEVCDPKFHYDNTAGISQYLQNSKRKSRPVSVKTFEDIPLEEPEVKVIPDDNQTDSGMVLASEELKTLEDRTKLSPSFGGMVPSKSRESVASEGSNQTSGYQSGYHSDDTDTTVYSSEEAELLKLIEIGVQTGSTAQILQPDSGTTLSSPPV

[3] = system: PC3; assay: Proliferation assay PC3; format: cell-based; settings: Homo sapiens, PC-3, 96 h; PC3, prostate carcinoma; 4 days, crystal violet
Description: (§1) Cultivated human tumor cells (originally obtained from ATCC, HeLa-MaTu and HeLa-MaTu-ADR, originally obtained from Epo GmbH, Berlin, Germany) were plated at a density of 1000 to 5000 cells/measuring point, depending on the growth rate of the cell line, in a 96-well multititer plate in 200 μl of growth medium (DMEM/HAMS F12, 2 mM L-glutamine, 10% fetal calf serum). After 24 hours the cells of one plate (zero-point plate) were stained with crystal violet (see below), whereas the medium of the other plates was replaced with fresh culture medium (200 μl), to which the test substances had been added at various concentrations (0 μM, and in the range 0.01-30 μM; the final concentration of the solvent dimethyl sulfoxide was 0.5%). The cells were incubated for 4 days in the presence of the test substances. Cellular proliferation was determined by staining the cells with crystal violet: the cells were fixed by adding 20 μl/measuring point of an 11% glutaraldehyde solution for 15 min at room temperature. After washing the fixed cells with water three times, the plates were dried at room temperature. The cells were stained by adding 100 μl/measuring point of a 0.1% crystal violet solution (pH adjusted to pH3 by adding acetic acid). After washing the stained cells with water three times, the plates were dried at room temperature. The dye was dissolved by adding 100 μl/measuring point of a 10% acetic acid solution. The extinction was determined photometrically at a wavelength of 595 nm. The percentage change in cell growth was calculated by standardization of the measured values to the extinction values of the zero-point plate (=0%) and the extinction of the untreated (0 μM) cells (=100%). The measured data were standardized to 0% inhibition (cell proliferation without inhibitor) and 100% inhibition (zero-point plate). The IC50 values were determined by means of a 4-parameter fit using the company's own software.
(§2) The substances were examined in the following cell lines which, in an exemplary manner, represent the stated indications: […]

[4] = system: H1975; assay: Proliferation assay H1975; format: cell-based; settings: Homo sapiens, NCI-H1975, 96 h; H1975, non-small-cell bronchial carcinoma; 4 days, crystal violet
Description: as §1, §2

[5] = system: HeLa; assay: Proliferation assay HeLa; format: cell-based; settings: Homo sapiens, 96 h, cervix carcinoma, 4 days, crystal violet
Description: as §1, §2

[6] = system: HeLa-MaTu; assay: Proliferation assay HeLa-MaTu; format: cell-based, human; settings: Homo sapiens, 96 h, cervix carcinoma, 4 days, crystal violet
In short: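 Human tumour cells were seeded at 1000–5000 cells per well in DMEM/HAMS F12 with 2 mM L-glutamine and 10% FCS, then exposed after 24 h to compound at 0.01–30 μM (0.5% DMSO) for 4 days. Proliferation was read by crystal violet staining at 595 nm, normalised to a zero-point plate, and IC50 obtained by 4-parameter fit.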

[7] = system: A2780-Cis; assay: Proliferation assay A2780-Cis; format: cell-based; settings: Homo sapiens, A2780cis, 96 h, ovarial carcinoma, 4 days, crystal violet
Description: as §1, with “After washing the fixed cells with water three times, the plates were dried at room temperature. The cells were stained by adding 100 μl/measuring point of a 0.1% crystal violet solution (pH adjusted to pH3 by adding acetic acid). After washing the stained cells with water three times, the plates were dried at room temperature. The dye was dissolved by adding 100 μl/measuring point of a 10% acetic acid solution.” left out, “The measured data were standardized to 0% inhibition (cell proliferation without inhibitor) and 100% inhibition (zero-point plate).” left out, “software. […]” for “software.”

SMILES | IC50 [1] | IC50 [2] | IC50 [3] | IC50 [4] | IC50 [5] | IC50 [6] | IC50 [7]
C[C@@H](O)[C@@H](C)Nc1nc(Nc2ccc(S(=N)(=O)C3CC3)cc2)ncc1C(F)(F)F (mixture of isomers) [Example 4-SI-1, (RS)—S-Cyclopropyl-S-(4-{[4-{[(1R,2R)-2-hydroxy-1-methylpropyl]amino}-5-(trifluoromethyl)-pyrimidin-2-yl]amino}phenyl)sulfoximide] | 6 nM | 46 nM | < 10 nM | 16 nM | 33 nM | 10 nM | 
C[C@@H](O)[C@@H](C)Oc1nc(Nc2ccc(S(C)(=N)=O)cc2)ncc1C(F)(F)F (single isomer, unassigned) [Example 2-SI-2] | 5 nM | 281 nM | 27 nM | 14 nM | 13 nM |  | 10 nM
